{"source": "patent US7553881B2", "about": "“Dental materials based on radically polymerizable macromers with antimicrobial effect” (Ivoclar Vivadent AG, priority 2006, dated 2009)", "test_system": "Staphylococcus aureus", "test": "Antimicrobial examination of photopolymerized, washed adhesive films on slides", "format": "cell-based", "details": "adhesive with 5 wt.-% MDPB, film washed two days with water", "experimental": "The above adhesives were applied to a slide and photopolymerized using a UV lamp.\nIn a Petri dish, a modified slide was covered with 30 ml of a Staphylococcus aureus suspension in PBS (→10^7 bacteria cells/ml) and then incubated accompanied by light shaking (50 rpm) for 1 h at 37° C. The bacterial suspension was then drawn off and the slide was washed with pure PBS (15+15 ml). The slide was then dried, transferred to a new Petri dish, covered with 30 ml 1.5% nutrient agar and then incubated at 37° C. A blind sample was then analogously tested in each case using a slide which was coated with adhesive without biocidal macromer.\nThe mixture was applied to a slide and photopolymerized with the help of a UV lamp. […] A slide which had been coated with adhesive without the biocidal monomer MDPH served as comparison.", "data": [{"smiles": "C=C(C)C(=O)OCCCCCCCCCCCC[n+]1ccccc1.[Br-]", "note": "[MDPB, 12-methacryloyloxydodecylpyridinium bromide]", "values": [{"measurement": "bacterial growth on slide coated with polymerized adhesive", "value": "no bacterial decay attack on the film itself"}, {"measurement": "bacterial growth on slide coated with polymerized adhesive", "setting": "listed as MDPH", "value": "no bacterial attack"}]}]}
